Reference: article PMC6409085, “Three odorant-binding proteins are involved in the behavioral response of Sogatella furcifera to rice plant volatiles” (PeerJ, 2019)
Values joined by “and” are separate entries in the source; they are usually repeats but may differ in a detail not shown here. Equal values may be shown once.

Legend:
SfurOBP3 = SfurOBP3 (Sogatella furcifera, UniProt V5T818); assay: biochemical; format: binding; conditions: for Fluorescence competitive binding assay, fluorescence intensity: OBP3, three replicate columns
SfurOBP3, sequence (V5T818 entry or part of it): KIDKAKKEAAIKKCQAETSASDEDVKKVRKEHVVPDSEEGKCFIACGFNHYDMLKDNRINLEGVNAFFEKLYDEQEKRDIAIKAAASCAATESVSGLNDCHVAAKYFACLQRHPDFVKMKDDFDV
How it was run: (§1)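 Protein 2.0 µM + 1-NPN 2.0 µM, 50 mM Tris-HCl pH 7.4; competitor odorants 2, 4 … 20 µM final; read 2 min post-addition, ex 337/em 390–490 nm; n=3. K1-NPN from 1-NPN titration/Scatchard; Ki from IC50 corrected for free 1-NPN.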

SfurOBP1 = SfurOBP1 (Sogatella furcifera, UniProt V5T8N5); assay: biochemical; format: binding; conditions: for Fluorescence competitive binding assay, fluorescence intensity: OBP1, three replicate columns
SfurOBP1, sequence (V5T8N5 entry or part of it): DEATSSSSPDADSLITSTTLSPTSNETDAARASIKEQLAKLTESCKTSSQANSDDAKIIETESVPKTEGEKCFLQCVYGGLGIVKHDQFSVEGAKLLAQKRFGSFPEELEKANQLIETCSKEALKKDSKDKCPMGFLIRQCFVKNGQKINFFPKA
How it was run: as §1

SfurOBP2 = SfurOBP2 (Sogatella furcifera, UniProt V5T759); assay: biochemical; format: binding
SfurOBP2, sequence (V5T759 entry or part of it): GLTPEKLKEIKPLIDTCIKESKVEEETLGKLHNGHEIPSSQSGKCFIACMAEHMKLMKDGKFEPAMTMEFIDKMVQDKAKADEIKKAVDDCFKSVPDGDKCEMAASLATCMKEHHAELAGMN
How it was run: as §1

SfurOBP11 = SfurOBP11 (Sogatella furcifera, UniProt V5T6E3); assay: biochemical; format: binding
SfurOBP11, sequence (V5T6E3 entry or part of it): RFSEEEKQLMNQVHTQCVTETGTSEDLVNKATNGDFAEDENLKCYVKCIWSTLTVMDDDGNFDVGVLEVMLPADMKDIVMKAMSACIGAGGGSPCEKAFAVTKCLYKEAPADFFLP
How it was run: as §1

S. furcifera adults = assay: Y-tube olfactometer behavioral trials; format: in vivo, Sogatella furcifera; conditions: odorant 50 µL/L vs hexane; adults
How it was run: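 Single S. furcifera adults (2 days post-emergence, starved 0.5 h) chose between odorant (100 µL of 50 µL/L on filter paper) and hexane control in a glass Y-tube, charcoal-filtered humidified air 300 mL/min per arm, 25 ± 1 °C, 50% RH. Choice scored if insect passed half an arm and stayed >1 min within 10 min; 45 insects per compound, chi-squared test.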

Structure (SMILES): CCCCCC=O [caproaldehyde]
- Fluorescence competitive binding assay, fluorescence intensity (SfurOBP3; ligand concentration 2): 54416 and 49651 and 50603
- Fluorescence competitive binding assay, fluorescence intensity (SfurOBP3; ligand concentration 4): 47681 and 49063 and 52745
- Fluorescence competitive binding assay, fluorescence intensity (SfurOBP3; ligand concentration 6): 47400 and 49699 and 51997
- Fluorescence competitive binding assay, fluorescence intensity (SfurOBP3; ligand concentration 8): 47134 and 47465 and 47300
- Fluorescence competitive binding assay, fluorescence intensity (SfurOBP3; ligand concentration 10): 47300 and 47488 and 47127
- Fluorescence competitive binding assay, fluorescence intensity (SfurOBP3; ligand concentration 12): 41818 and 40552 and 41184
- Fluorescence competitive binding assay, fluorescence intensity (SfurOBP3; ligand concentration 14): 39535 and 41064 and 41296
- Fluorescence competitive binding assay, fluorescence intensity (SfurOBP3; ligand concentration 16): 37737 and 36118 and 39070
- Fluorescence competitive binding assay, fluorescence intensity (SfurOBP3; ligand concentration 18): 41678 and 41915 and 41872
- Fluorescence competitive binding assay, fluorescence intensity (SfurOBP3; ligand concentration 20): 43199 and 40517 and 41843
- IC50 (SfurOBP3; SfurOBP3, protein and 1-NPN both 2.0 µM, competitor 2-20 µM, read-out: IC50): > 20 µM
- Fluorescence competitive binding assay, fluorescence intensity (SfurOBP1; ligand concentration 2 (μM)): 7058 and 6495 and 6761
- Fluorescence competitive binding assay, fluorescence intensity (SfurOBP1; ligand concentration 4 (μM)): 6839 and 6210 and 6737
- Fluorescence competitive binding assay, fluorescence intensity (SfurOBP1; ligand concentration 6 (μM)): 6250 and 6285 and 6245
- Fluorescence competitive binding assay, fluorescence intensity (SfurOBP1; ligand concentration 8 (μM)): 7860 and 6318 and 6460
- Fluorescence competitive binding assay, fluorescence intensity (SfurOBP1; ligand concentration 10 (μM)): 7929 and 6952 and 5745
- Fluorescence competitive binding assay, fluorescence intensity (SfurOBP1; ligand concentration 12 (μM)): 6197 and 6258 and 6135
- Fluorescence competitive binding assay, fluorescence intensity (SfurOBP1; ligand concentration 14 (μM)): 6889 and 6127 and 7279
- Fluorescence competitive binding assay, fluorescence intensity (SfurOBP1; ligand concentration 16 (μM)): 6363 and 6530 and 5971
- Fluorescence competitive binding assay, fluorescence intensity (SfurOBP1; ligand concentration 18 (μM)): 6197 and 6677 and 5953
- Fluorescence competitive binding assay, fluorescence intensity (SfurOBP1; ligand concentration 20 (μM)): 6241 and 6216 and 6243
- IC50 (SfurOBP1; SfurOBP1, protein and 1-NPN both 2.0 µM, competitor 2-20 µM, read-out: IC50): > 20 µM
- IC50 (SfurOBP2; SfurOBP2, protein and 1-NPN both 2.0 µM, competitor 2-20 µM, read-out: IC50): > 20 µM
- Fluorescence competitive binding assay, OBP2 (raw fluorescence reading) (SfurOBP2; ligand concentration 2 (unit not given), replicate column 1 of 3): 19948
- Fluorescence competitive binding assay, OBP2 (raw fluorescence reading) (SfurOBP2; ligand concentration 2 (unit not given), replicate column 2 of 3): 17721
- Fluorescence competitive binding assay, OBP2 (raw fluorescence reading) (SfurOBP2; ligand concentration 2 (unit not given), replicate column 3 of 3): 20397
- Fluorescence competitive binding assay, OBP2 (raw fluorescence reading) (SfurOBP2; ligand concentration 4 (unit not given), replicate column 1 of 3): 18968
- Fluorescence competitive binding assay, OBP2 (raw fluorescence reading) (SfurOBP2; ligand concentration 4 (unit not given), replicate column 2 of 3): 18911
- Fluorescence competitive binding assay, OBP2 (raw fluorescence reading) (SfurOBP2; ligand concentration 4 (unit not given), replicate column 3 of 3): 20133
- Fluorescence competitive binding assay, OBP2 (raw fluorescence reading) (SfurOBP2; ligand concentration 6 (unit not given), replicate column 1 of 3): 20477
- Fluorescence competitive binding assay, OBP2 (raw fluorescence reading) (SfurOBP2; ligand concentration 6 (unit not given), replicate column 2 of 3): 18306
- Fluorescence competitive binding assay, OBP2 (raw fluorescence reading) (SfurOBP2; ligand concentration 6 (unit not given), replicate column 3 of 3): 21619
- Fluorescence competitive binding assay, OBP2 (raw fluorescence reading) (SfurOBP2; ligand concentration 8 (unit not given), replicate column 1 of 3): 17546
- Fluorescence competitive binding assay, OBP2 (raw fluorescence reading) (SfurOBP2; ligand concentration 8 (unit not given), replicate column 2 of 3): 19283
- Fluorescence competitive binding assay, OBP2 (raw fluorescence reading) (SfurOBP2; ligand concentration 8 (unit not given), replicate column 3 of 3): 19094
- Fluorescence competitive binding assay, OBP2 (raw fluorescence reading) (SfurOBP2; ligand concentration 10 (unit not given), replicate column 1 of 3): 16315
- Fluorescence competitive binding assay, OBP2 (raw fluorescence reading) (SfurOBP2; ligand concentration 10 (unit not given), replicate column 2 of 3): 17446
- Fluorescence competitive binding assay, OBP2 (raw fluorescence reading) (SfurOBP2; ligand concentration 10 (unit not given), replicate column 3 of 3): 18120
- Fluorescence competitive binding assay, OBP2 (raw fluorescence reading) (SfurOBP2; ligand concentration 12 (unit not given), replicate column 1 of 3): 15600
- Fluorescence competitive binding assay, OBP2 (raw fluorescence reading) (SfurOBP2; ligand concentration 12 (unit not given), replicate column 2 of 3): 16015
- Fluorescence competitive binding assay, OBP2 (raw fluorescence reading) (SfurOBP2; ligand concentration 12 (unit not given), replicate column 3 of 3): 15598
- Fluorescence competitive binding assay, OBP2 (raw fluorescence reading) (SfurOBP2; ligand concentration 14 (unit not given), replicate column 1 of 3): 15415
- Fluorescence competitive binding assay, OBP2 (raw fluorescence reading) (SfurOBP2; ligand concentration 14 (unit not given), replicate column 2 of 3): 15014
- Fluorescence competitive binding assay, OBP2 (raw fluorescence reading) (SfurOBP2; ligand concentration 14 (unit not given), replicate column 3 of 3): 15552
- Fluorescence competitive binding assay, OBP2 (raw fluorescence reading) (SfurOBP2; ligand concentration 16 (unit not given), replicate column 1 of 3): 16559
- Fluorescence competitive binding assay, OBP2 (raw fluorescence reading) (SfurOBP2; ligand concentration 16 (unit not given), replicate column 2 of 3): 13446
- Fluorescence competitive binding assay, OBP2 (raw fluorescence reading) (SfurOBP2; ligand concentration 16 (unit not given), replicate column 3 of 3): 13014
- Fluorescence competitive binding assay, OBP2 (raw fluorescence reading) (SfurOBP2; ligand concentration 18 (unit not given), replicate column 1 of 3): 16224
- Fluorescence competitive binding assay, OBP2 (raw fluorescence reading) (SfurOBP2; ligand concentration 18 (unit not given), replicate column 2 of 3): 16658
- Fluorescence competitive binding assay, OBP2 (raw fluorescence reading) (SfurOBP2; ligand concentration 18 (unit not given), replicate column 3 of 3): 15875
- Fluorescence competitive binding assay, OBP2 (raw fluorescence reading) (SfurOBP2; ligand concentration 20 (unit not given), replicate column 1 of 3): 15466
- Fluorescence competitive binding assay, OBP2 (raw fluorescence reading) (SfurOBP2; ligand concentration 20 (unit not given), replicate column 2 of 3): 14819
- Fluorescence competitive binding assay, OBP2 (raw fluorescence reading) (SfurOBP2; ligand concentration 20 (unit not given), replicate column 3 of 3): 14364
- IC50 (SfurOBP11; SfurOBP11, protein and 1-NPN both 2.0 µM, competitor 2-20 µM, read-out: IC50): > 20 µM
- Fluorescence intensity, fluorescence competitive binding assay, OBP11 (SfurOBP11; ligand concentration 2, replicate 1): 29622
- Fluorescence intensity, fluorescence competitive binding assay, OBP11 (SfurOBP11; ligand concentration 2, replicate 2): 27160
- Fluorescence intensity, fluorescence competitive binding assay, OBP11 (SfurOBP11; ligand concentration 2, replicate 3): 24651
- Fluorescence intensity, fluorescence competitive binding assay, OBP11 (SfurOBP11; ligand concentration 4, replicate 1): 27823
- Fluorescence intensity, fluorescence competitive binding assay, OBP11 (SfurOBP11; ligand concentration 4, replicate 2): 29657
- Fluorescence intensity, fluorescence competitive binding assay, OBP11 (SfurOBP11; ligand concentration 4, replicate 3): 29706
- Fluorescence intensity, fluorescence competitive binding assay, OBP11 (SfurOBP11; ligand concentration 6, replicate 1): 29000
- Fluorescence intensity, fluorescence competitive binding assay, OBP11 (SfurOBP11; ligand concentration 6, replicate 2): 25791
- Fluorescence intensity, fluorescence competitive binding assay, OBP11 (SfurOBP11; ligand concentration 6, replicate 3): 27264
- Fluorescence intensity, fluorescence competitive binding assay, OBP11 (SfurOBP11; ligand concentration 8, replicate 1): 26196
- Fluorescence intensity, fluorescence competitive binding assay, OBP11 (SfurOBP11; ligand concentration 8, replicate 2): 25787
- Fluorescence intensity, fluorescence competitive binding assay, OBP11 (SfurOBP11; ligand concentration 8, replicate 3): 26691
- Fluorescence intensity, fluorescence competitive binding assay, OBP11 (SfurOBP11; ligand concentration 10, replicate 1): 22993
- Fluorescence intensity, fluorescence competitive binding assay, OBP11 (SfurOBP11; ligand concentration 10, replicate 2): 24045
- Fluorescence intensity, fluorescence competitive binding assay, OBP11 (SfurOBP11; ligand concentration 10, replicate 3): 23459
- Fluorescence intensity, fluorescence competitive binding assay, OBP11 (SfurOBP11; ligand concentration 12, replicate 1): 23301
- Fluorescence intensity, fluorescence competitive binding assay, OBP11 (SfurOBP11; ligand concentration 12, replicate 2): 22698
- Fluorescence intensity, fluorescence competitive binding assay, OBP11 (SfurOBP11; ligand concentration 12, replicate 3): 22770
- Fluorescence intensity, fluorescence competitive binding assay, OBP11 (SfurOBP11; ligand concentration 14, replicate 1): 21327
- Fluorescence intensity, fluorescence competitive binding assay, OBP11 (SfurOBP11; ligand concentration 14, replicate 2): 20283
- Fluorescence intensity, fluorescence competitive binding assay, OBP11 (SfurOBP11; ligand concentration 14, replicate 3): 20685
- Fluorescence intensity, fluorescence competitive binding assay, OBP11 (SfurOBP11; ligand concentration 16, replicate 1): 18242
- Fluorescence intensity, fluorescence competitive binding assay, OBP11 (SfurOBP11; ligand concentration 16, replicate 2): 16904
- Fluorescence intensity, fluorescence competitive binding assay, OBP11 (SfurOBP11; ligand concentration 16, replicate 3): 18315
- Fluorescence intensity, fluorescence competitive binding assay, OBP11 (SfurOBP11; ligand concentration 18, replicate 1): 21574
- Fluorescence intensity, fluorescence competitive binding assay, OBP11 (SfurOBP11; ligand concentration 18, replicate 2): 21057
- Fluorescence intensity, fluorescence competitive binding assay, OBP11 (SfurOBP11; ligand concentration 18, replicate 3): 21178
- Fluorescence intensity, fluorescence competitive binding assay, OBP11 (SfurOBP11; ligand concentration 20, replicate 1): 19958
- Fluorescence intensity, fluorescence competitive binding assay, OBP11 (SfurOBP11; ligand concentration 20, replicate 2): 19749
- Fluorescence intensity, fluorescence competitive binding assay, OBP11 (SfurOBP11; ligand concentration 20, replicate 3): 19854
- number of insects choosing hexane arm (S. furcifera adults): 9
- number of insects choosing volatilies arm (S. furcifera adults): 12
- number of insects failed (no choice) (S. furcifera adults): 19
